Experimental data published in ChEMBL document CHEMBL1133403 (Bioorg Med Chem Lett, 2000).
The source made the active and inactive calls. The calls are words filed in the database; no cut-off is given here.

Legend:
[1] = molecular target: T1, Glucocorticoid receptor (Homo sapiens) (UniProt P04150); experiment: Percent inhibition of glucocorticoid receptor transcriptional activity at Dexamethasone EC50; not active; assay type: functional
T1 sequence (whole entry): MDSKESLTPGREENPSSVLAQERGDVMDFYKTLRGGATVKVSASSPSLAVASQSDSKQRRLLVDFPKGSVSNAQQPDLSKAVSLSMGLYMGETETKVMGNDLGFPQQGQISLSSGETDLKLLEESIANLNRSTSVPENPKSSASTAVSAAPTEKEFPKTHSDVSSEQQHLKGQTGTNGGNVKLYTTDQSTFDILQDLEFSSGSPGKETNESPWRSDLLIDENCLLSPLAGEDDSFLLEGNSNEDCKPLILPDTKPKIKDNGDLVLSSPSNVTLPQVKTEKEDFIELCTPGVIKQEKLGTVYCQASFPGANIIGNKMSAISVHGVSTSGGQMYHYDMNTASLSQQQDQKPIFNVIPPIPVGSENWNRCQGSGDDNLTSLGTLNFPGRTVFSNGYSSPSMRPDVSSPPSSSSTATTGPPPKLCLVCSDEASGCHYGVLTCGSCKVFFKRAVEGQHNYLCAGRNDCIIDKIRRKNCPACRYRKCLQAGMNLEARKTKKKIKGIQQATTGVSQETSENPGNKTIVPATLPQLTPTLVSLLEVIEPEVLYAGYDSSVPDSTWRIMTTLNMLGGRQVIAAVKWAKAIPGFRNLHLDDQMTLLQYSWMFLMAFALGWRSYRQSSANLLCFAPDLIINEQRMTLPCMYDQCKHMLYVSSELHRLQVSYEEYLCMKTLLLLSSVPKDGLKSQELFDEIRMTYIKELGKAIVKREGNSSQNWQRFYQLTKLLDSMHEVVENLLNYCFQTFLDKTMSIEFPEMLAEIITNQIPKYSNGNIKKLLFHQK

[2] = molecular target: Estrogen receptor (Homo sapiens) (UniProt Q92731+P03372); experiment: Percent inhibition of estrogen receptor transcriptional activity at estradiol EC50; NA=not active; assay type: functional
[3] = molecular target: T2, Glucocorticoid receptor (Homo sapiens, UniProt P04150); experiment: Cross-reactivity as binding to human glucocorticoid receptor (hGR); NA=not active; assay type: functional
T2 sequence (P04150 whole entry): T1 sequence (whole entry)

[4] = molecular target: T3, Mineralocorticoid receptor (Homo sapiens, UniProt P08235); experiment: Cross-reactivity as binding to human mineralocorticoid receptor (hMR); assay type: functional
T3 sequence (P08235 whole entry): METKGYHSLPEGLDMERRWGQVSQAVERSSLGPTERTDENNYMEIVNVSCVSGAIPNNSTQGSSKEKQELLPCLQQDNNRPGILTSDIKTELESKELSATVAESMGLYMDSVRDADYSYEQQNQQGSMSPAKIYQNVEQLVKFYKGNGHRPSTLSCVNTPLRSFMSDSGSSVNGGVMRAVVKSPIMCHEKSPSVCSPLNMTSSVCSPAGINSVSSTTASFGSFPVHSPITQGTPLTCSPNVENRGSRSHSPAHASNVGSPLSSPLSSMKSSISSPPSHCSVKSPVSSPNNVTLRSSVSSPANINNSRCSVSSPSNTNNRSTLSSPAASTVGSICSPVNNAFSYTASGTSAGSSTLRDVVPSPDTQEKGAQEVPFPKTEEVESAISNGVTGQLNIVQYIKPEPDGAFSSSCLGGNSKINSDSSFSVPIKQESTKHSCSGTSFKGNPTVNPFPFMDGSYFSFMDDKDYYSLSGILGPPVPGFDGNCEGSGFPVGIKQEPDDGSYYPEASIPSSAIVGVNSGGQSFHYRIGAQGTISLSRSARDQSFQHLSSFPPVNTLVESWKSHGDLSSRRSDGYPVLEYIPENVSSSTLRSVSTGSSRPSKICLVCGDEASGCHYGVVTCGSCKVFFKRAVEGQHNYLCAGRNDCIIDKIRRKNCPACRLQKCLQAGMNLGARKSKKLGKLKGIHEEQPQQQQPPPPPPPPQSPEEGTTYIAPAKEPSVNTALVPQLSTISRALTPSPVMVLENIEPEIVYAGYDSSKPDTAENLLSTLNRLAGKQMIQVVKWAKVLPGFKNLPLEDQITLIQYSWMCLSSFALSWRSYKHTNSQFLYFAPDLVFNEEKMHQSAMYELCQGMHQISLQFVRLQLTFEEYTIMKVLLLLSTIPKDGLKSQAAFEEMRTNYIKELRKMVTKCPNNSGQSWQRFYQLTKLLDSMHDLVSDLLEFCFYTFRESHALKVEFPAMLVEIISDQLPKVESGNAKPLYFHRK

[5] = molecular target: T4, Progesterone receptor (Homo sapiens, UniProt P06401); experiment: Human progesterone receptor (hPR) agonist activity using cotransfection assay in CV-1 cells.; assay type: functional, cell-based
T4 sequence (P06401 whole entry): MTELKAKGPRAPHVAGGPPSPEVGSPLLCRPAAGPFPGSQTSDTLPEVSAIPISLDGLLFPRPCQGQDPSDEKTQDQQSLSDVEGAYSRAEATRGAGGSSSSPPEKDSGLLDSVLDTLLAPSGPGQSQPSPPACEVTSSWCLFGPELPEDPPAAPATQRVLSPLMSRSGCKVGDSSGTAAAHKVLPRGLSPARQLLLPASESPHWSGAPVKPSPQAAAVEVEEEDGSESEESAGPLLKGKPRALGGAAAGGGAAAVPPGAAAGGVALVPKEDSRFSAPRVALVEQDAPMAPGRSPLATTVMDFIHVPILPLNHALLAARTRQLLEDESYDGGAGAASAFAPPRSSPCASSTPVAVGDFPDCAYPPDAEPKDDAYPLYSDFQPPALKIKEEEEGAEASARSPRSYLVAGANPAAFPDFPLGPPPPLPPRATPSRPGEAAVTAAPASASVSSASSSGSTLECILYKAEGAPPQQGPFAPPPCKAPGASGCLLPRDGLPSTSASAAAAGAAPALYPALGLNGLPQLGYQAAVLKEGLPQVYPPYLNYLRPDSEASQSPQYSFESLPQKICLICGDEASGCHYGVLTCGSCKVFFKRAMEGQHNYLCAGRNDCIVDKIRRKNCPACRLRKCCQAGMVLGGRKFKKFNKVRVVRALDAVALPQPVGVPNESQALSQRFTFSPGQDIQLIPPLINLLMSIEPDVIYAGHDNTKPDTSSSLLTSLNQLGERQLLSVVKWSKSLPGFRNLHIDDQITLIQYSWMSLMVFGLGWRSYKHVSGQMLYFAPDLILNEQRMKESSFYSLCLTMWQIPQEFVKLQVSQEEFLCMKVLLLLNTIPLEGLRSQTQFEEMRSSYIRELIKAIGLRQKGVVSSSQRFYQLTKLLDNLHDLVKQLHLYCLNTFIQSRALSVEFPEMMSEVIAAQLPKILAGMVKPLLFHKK

[6] = molecular target: T4, Progesterone receptor; experiment: Human progesterone receptor (hPR) agonist activity in T47D human breast cancer cell line; NA=not active; assay type: functional, cell-based
[7] = molecular target: T4, Progesterone receptor; experiment: Antagonist activity against human progesterone receptor (hPR) in T47D human breast cancer cell line; assay type: functional, cell-based
[8] = molecular target: T4, Progesterone receptor; experiment: Binding affinity against human progesterone receptor (hPR) in a competitive binding assay
[9] = molecular target: T4, Progesterone receptor; experiment: Antagonist activity against human progesterone receptor (hPR) using cotransfection assay in CV-1 cells; assay type: functional, cell-based
[10] = molecular target: T5, Androgen receptor (Homo sapiens, UniProt P10275); experiment: Cross-reactivity as binding to human androgen receptor (hAR); assay type: functional
T5 sequence (P10275 whole entry): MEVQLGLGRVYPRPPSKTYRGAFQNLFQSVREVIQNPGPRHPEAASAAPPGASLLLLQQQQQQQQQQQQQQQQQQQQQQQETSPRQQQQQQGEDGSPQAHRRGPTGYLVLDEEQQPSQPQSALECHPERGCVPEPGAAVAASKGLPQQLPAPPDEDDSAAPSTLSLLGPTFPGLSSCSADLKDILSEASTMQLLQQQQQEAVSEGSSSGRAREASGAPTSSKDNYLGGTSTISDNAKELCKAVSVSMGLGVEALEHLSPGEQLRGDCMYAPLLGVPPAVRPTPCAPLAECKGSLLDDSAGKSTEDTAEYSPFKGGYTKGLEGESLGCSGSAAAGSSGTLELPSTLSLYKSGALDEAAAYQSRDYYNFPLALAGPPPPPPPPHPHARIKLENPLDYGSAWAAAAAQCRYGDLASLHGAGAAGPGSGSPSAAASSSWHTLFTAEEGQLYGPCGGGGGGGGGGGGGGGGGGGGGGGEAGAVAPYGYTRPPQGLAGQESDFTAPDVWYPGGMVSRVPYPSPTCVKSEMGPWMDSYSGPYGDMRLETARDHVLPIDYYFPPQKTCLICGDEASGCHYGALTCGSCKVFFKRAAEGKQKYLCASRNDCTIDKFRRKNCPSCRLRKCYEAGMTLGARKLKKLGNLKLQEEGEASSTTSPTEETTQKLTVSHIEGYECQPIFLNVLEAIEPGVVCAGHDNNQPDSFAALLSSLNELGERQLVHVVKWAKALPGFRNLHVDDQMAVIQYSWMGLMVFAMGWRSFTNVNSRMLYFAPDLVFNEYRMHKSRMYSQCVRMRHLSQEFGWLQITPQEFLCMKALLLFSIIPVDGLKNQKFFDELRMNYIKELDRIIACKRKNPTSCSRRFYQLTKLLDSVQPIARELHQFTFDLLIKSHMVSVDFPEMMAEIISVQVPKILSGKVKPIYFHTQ

[11] = molecular target: T2, Glucocorticoid receptor; experiment: Cross-reactivity as binding to human glucocorticoid receptor (hGR); assay type: functional
[12] = molecular target: T4, Progesterone receptor; experiment: Human progesterone receptor (hPR) agonist activity in T47D human breast cancer cell line; assay type: functional, cell-based
[13] = molecular target: T4, Progesterone receptor; experiment: Human progesterone receptor (hPR) agonist activity expressed in CV-1 cells; assay type: functional, cell-based
[14] = molecular target: T6, Mineralocorticoid receptor (Homo sapiens) (UniProt P08235); experiment: Percent inhibition of mineralocorticoid receptor transcriptional activity at aldosterone EC50; NA=not active; assay type: functional
T6 sequence (whole entry): T3 sequence (P08235 whole entry)

[15] = molecular target: T3, Mineralocorticoid receptor; experiment: Cross-reactivity as binding to human mineralocorticoid receptor (hMR); NA=not active; assay type: functional

| SMILES | EC50 [5] | EC50 [6] | IC50 [7] | Ki [8] | IC50 [9] | EC50 [12] | other results |
| --- | --- | --- | --- | --- | --- | --- | --- |
| CC1=CC(C)(C)Nc2ccc(-c3cc(F)cc(C#N)c3)cc21 | Not Active |  |  |  |  |  | Efficacy [1]: inactive; Efficacy [2]: inactive; IC50 [3]: Not Active; IC50 [4]: > 1000 nM |
| CC1=CC(C)(C)Nc2ccc(-c3ccsc3C#N)cc21 | Not Active | Not Active | 278 nM | > 100 nM | 318 nM |  |  |
| CC1=CC(C)(C)Nc2ccc(-c3cccs3)cc21 | Not Active | Not Active | 700 nM | 237 nM | 416 nM |  |  |
| Cc1cc(C#N)sc1-c1ccc2c(c1)C(C)CC(C)(C)N2 (configuration not stated) |  |  |  |  |  |  | IC50 [10]: 45 nM; IC50 [4]: 1000 nM |
| CN(C)c1ccc([C@H]2C[C@]3(C)[C@@H](CC[C@]3(O)CCCO)[C@@H]3CCC4=CC(=O)CCC4=C32)cc1 [ONAPRISTONE] | Not Active | Not Active |  |  |  |  |  |
| CC1=CC(C)(C)Nc2ccc(-c3sccc3C)cc21 | Not Active | Not Active | 105 nM | 25 nM | 232 nM |  |  |
| CC1=CC(C)(C)Nc2ccc(-c3sc(C#N)cc3C)cc21 | Not Active |  | 123 nM | 26 nM | 33 nM | 500 nM | IC50 [10]: 200 nM; IC50 [11]: 780 nM; IC50 [4]: 2000 nM |
| CC1=CC(C)(C)Nc2ccc(-c3ccc(C=O)s3)cc21 | Not Active | Not Active | 78 nM | 80 nM | 729 nM |  |  |
| CC1(C)Nc2ccc(-c3csc(C#N)c3)cc2C(C)(C)C1=O |  |  |  | 12.4 nM | 14 nM |  | IC50 [10]: 1100 nM; IC50 [11]: 900 nM; IC50 [4]: 2700 nM; EC50 [13]: 1190 nM |
| CC1=CC(C)(C)Nc2ccc(-c3ccc(Br)s3)cc21 | Not Active | Not Active | 71 nM | 31 nM | 65 nM |  |  |
| CC1=CC(C)(C)Nc2ccc(-c3cc(Br)c(C#N)s3)cc21 | Not Active | Not Active | 250 nM | 249 nM | 242 nM |  |  |
| CC1=CC(C)(C)Nc2ccc(-c3ccc(Cl)s3)cc21 | Not Active |  | 151 nM | 12 nM | 43 nM | 2650 nM |  |
| CC1=CC(C)(C)Nc2ccc(-c3cc(Br)cs3)cc21 |  |  | 190 nM | 32 nM | 105 nM | 3500 nM |  |
| Cc1cc(C#N)sc1-c1ccc2c(c1)C(C)(C)C(=O)C(C)(C)N2 |  |  |  | 3.9 nM | 10 nM |  | IC50 [10]: 150 nM; IC50 [11]: 35 nM; IC50 [4]: 2100 nM; EC50 [13]: 350 nM |
| CC1=CC(C)(C)Nc2ccc(-c3sc(C#N)cc3Br)cc21 | Not Active |  | 120 nM | 433 nM | 52 nM | 700 nM |  |
| CC1=CC(C)(C)Nc2ccc(-c3c(C)sc(C#N)c3C)cc21 | Not Active |  | 150 nM | 36 nM | 124 nM | 580 nM |  |
| CC1=CC(C)(C)Nc2ccc(-c3csc(C=O)c3)cc21 | Not Active | Not Active | 102 nM | 37 nM | 245 nM |  |  |
| CC1=CC(C)(C)Nc2ccc(-c3ccc(C#N)s3)cc21 |  |  | 80 nM | 55 nM | 27 nM | 1800 nM | IC50 [10]: 1110 nM; IC50 [11]: 3200 nM; Efficacy [14]: inactive; IC50 [15]: Not Active; EC50 [13]: 2900 nM |
| CC1=CC(C)(C)Nc2ccc(-c3cc(C#N)sc3C)cc21 | Not Active |  | 120 nM | 31 nM | 109 nM | 1400 nM |  |
